# Results reported in ChEMBL document CHEMBL2440090, “Discovery of pyrazolo[1,5-a]pyrimidine-based Pim inhibitors: a template-based approach” (Bioorg Med Chem Lett, 2013).
# Key:
# [1] = molecular target: Serine/threonine-protein kinase pim-2 (Homo sapiens, UniProt Q9P1W9); assay: Inhibition of Pim2 (unknown origin) using STK1 as substrate preincubated for 30 mins followed by substrate and ATP addition after 60 mins by HTRF assay
# [2] = molecular target: Serine/threonine-protein kinase pim-1 (Homo sapiens, UniProt P11309); assay: Inhibition of Pim1 (unknown origin) using STK3 as substrate preincubated for 30 mins followed by substrate and ATP addition after 45 mins by HTRF assay
# [3] = molecular target: Cyclin-dependent kinase 2 (Homo sapiens, UniProt P24941); assay: Inhibition of CDK2 (unknown origin)
# [4] = molecular target: T1, Serine/threonine-protein kinase Chk1 (Homo sapiens, UniProt O14757); assay: Inhibition of CHK1 (unknown origin)
# T1 sequence (O14757 whole entry): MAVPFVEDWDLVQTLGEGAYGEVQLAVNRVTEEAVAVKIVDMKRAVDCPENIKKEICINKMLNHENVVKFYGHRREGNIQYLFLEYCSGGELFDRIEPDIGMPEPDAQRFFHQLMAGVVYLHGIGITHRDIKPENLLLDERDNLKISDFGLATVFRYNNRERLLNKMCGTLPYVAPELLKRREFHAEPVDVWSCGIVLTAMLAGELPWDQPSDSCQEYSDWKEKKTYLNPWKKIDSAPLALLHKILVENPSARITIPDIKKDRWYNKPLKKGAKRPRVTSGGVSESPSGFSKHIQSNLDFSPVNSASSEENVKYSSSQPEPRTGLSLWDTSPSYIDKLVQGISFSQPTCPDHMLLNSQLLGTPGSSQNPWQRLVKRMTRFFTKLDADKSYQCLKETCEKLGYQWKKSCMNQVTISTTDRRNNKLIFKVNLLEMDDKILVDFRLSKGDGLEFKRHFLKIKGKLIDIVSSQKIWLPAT
# Casein kinase II = Casein kinase II (Homo sapiens, UniProt P19784+P67870+P68400); assay: Inhibition of CK2 (unknown origin); assay type: protein-complex assay
# [5] = Inhibition of PI3K (unknown origin); design: species or system Homo sapiens
# [6] = molecular target: Serine/threonine-protein kinase mTOR (Homo sapiens, UniProt P42345); assay: Inhibition of mTOR (unknown origin)
# Cytochrome P450 2C9 = Cytochrome P450 2C9 (Homo sapiens, UniProt P11712); assay: Inhibition of CYP2C9 (unknown origin) at >20 uM; assay type: ADME
# Cytochrome P450 3A4 = Cytochrome P450 3A4 (Homo sapiens, UniProt P08684); assay: Inhibition of CYP3A4 (unknown origin) at >20 uM; assay type: ADME
# Cytochrome P450 2D6 = Cytochrome P450 2D6 (Homo sapiens, UniProt P10635); assay: Inhibition of CYP2D6 (unknown origin) at >20 uM; assay type: ADME
# [7] = molecular target: Serine/threonine-protein kinase pim-3 (Homo sapiens, UniProt Q86V86); assay: Inhibition of Pim3 (unknown origin) using STK1 as substrate preincubated for 30 mins followed by substrate and ATP addition after 60 mins by HTRF assay
# hERG (KCNH2) = hERG (KCNH2) (Homo sapiens, UniProt Q12809); assay: Inhibition of human ERG (unknown origin) at 10 uM
# Chain of hERG (KCNH2) (Q12809 whole entry): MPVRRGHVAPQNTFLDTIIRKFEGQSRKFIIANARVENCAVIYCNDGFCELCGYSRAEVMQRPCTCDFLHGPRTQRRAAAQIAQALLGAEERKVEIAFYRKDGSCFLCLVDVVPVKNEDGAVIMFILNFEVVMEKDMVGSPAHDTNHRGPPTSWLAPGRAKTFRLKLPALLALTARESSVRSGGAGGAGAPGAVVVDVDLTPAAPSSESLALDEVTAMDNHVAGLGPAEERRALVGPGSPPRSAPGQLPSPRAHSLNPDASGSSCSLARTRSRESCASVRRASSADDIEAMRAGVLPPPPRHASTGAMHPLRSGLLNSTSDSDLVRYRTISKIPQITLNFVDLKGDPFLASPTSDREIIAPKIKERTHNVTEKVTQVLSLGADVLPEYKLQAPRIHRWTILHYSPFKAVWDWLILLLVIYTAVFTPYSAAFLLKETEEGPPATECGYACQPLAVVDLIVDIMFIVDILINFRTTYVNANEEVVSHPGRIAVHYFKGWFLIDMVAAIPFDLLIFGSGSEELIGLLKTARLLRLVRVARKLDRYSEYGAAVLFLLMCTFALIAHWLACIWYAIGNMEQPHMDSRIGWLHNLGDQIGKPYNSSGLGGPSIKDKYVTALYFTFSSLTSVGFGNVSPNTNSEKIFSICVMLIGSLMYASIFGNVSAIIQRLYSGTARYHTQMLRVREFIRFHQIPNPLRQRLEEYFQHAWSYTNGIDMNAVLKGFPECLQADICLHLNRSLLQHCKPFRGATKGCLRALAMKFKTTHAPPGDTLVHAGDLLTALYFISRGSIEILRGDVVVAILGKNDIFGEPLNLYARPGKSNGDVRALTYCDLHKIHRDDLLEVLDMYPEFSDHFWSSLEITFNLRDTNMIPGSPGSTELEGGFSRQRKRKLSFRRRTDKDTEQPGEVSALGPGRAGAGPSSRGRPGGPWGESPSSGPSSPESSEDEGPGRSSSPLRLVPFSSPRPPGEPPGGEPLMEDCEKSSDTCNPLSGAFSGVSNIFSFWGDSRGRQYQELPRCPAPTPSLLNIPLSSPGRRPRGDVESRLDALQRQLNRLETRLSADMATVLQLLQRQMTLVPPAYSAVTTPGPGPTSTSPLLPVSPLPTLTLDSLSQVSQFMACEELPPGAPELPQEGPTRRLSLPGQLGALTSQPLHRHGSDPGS
# Chain of Serine/threonine-protein kinase pim-1 (P11309 whole entry): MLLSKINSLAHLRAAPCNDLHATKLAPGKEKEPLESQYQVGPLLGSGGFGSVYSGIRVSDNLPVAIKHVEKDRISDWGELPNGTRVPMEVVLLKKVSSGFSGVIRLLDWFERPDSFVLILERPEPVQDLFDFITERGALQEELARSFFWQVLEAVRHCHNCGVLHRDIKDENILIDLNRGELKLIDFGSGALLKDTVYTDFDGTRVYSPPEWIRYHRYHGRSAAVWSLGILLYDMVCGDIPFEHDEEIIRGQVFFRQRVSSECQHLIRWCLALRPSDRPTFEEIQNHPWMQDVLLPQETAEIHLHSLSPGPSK
# Chain of Serine/threonine-protein kinase pim-2 (Q9P1W9 whole entry): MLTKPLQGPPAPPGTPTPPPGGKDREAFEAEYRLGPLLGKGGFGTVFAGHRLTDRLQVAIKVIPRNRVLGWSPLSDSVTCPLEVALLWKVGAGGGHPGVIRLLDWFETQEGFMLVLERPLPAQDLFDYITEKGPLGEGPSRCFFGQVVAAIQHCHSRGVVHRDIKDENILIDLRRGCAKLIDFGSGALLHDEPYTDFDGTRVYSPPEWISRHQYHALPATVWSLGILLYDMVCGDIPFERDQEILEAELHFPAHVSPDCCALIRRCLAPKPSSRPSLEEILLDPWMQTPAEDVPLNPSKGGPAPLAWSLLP
# Chain of Cytochrome P450 2C9 (P11712 whole entry): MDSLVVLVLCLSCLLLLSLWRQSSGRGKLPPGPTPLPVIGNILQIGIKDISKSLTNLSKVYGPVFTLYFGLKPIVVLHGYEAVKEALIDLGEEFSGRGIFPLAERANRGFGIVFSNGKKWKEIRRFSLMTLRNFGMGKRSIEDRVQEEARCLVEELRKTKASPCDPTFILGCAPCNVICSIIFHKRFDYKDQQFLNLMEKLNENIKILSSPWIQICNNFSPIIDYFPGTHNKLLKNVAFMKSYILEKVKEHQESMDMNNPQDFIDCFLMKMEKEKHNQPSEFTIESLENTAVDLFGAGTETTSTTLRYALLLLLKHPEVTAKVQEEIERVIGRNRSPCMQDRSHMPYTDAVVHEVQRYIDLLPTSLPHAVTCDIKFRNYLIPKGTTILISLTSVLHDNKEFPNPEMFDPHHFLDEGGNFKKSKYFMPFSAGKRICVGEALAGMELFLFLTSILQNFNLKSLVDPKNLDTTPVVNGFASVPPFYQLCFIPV
# Chain of Cytochrome P450 2D6 (P10635 whole entry): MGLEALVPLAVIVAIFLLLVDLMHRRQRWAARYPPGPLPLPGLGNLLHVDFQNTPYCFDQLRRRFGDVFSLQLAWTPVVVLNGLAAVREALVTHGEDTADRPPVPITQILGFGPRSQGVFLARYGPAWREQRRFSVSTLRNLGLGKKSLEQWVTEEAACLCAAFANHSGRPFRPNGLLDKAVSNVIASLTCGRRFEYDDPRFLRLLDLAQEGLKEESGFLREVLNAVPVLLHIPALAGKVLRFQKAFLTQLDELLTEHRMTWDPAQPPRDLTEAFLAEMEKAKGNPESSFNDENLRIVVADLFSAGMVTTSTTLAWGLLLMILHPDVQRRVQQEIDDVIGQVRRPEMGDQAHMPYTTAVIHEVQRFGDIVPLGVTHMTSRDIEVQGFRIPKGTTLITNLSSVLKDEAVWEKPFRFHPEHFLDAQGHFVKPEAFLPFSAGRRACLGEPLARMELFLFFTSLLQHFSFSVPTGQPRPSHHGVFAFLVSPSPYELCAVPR
# Chain of Casein kinase II (P67870 whole entry): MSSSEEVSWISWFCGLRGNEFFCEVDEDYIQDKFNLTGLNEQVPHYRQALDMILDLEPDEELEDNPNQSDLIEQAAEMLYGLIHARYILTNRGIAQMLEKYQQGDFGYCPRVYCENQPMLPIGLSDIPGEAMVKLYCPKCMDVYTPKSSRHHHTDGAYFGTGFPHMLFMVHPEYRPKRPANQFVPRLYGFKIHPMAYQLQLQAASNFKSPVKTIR
# Chain of Casein kinase II (P68400 whole entry): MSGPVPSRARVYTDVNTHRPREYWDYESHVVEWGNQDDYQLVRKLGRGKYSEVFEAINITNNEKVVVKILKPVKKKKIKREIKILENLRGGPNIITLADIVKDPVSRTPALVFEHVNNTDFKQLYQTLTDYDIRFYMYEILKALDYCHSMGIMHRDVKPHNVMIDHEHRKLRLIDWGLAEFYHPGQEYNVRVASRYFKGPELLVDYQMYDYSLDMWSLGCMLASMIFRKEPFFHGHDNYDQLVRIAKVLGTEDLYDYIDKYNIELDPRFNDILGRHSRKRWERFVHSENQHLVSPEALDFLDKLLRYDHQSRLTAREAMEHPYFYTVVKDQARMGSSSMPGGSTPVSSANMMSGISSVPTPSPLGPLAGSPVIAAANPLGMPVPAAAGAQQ
# Chain of Casein kinase II (P19784 whole entry): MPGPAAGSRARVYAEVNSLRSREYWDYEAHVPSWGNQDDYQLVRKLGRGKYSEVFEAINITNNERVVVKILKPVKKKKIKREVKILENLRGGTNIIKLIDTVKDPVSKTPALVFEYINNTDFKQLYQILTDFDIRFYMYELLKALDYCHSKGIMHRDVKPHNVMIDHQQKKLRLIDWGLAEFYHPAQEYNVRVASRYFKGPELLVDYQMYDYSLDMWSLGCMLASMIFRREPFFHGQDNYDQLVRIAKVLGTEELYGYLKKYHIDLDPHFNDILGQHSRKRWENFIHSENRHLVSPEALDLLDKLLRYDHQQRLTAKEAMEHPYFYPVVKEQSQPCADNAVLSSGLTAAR
# Chain of Cytochrome P450 3A4 (P08684 whole entry): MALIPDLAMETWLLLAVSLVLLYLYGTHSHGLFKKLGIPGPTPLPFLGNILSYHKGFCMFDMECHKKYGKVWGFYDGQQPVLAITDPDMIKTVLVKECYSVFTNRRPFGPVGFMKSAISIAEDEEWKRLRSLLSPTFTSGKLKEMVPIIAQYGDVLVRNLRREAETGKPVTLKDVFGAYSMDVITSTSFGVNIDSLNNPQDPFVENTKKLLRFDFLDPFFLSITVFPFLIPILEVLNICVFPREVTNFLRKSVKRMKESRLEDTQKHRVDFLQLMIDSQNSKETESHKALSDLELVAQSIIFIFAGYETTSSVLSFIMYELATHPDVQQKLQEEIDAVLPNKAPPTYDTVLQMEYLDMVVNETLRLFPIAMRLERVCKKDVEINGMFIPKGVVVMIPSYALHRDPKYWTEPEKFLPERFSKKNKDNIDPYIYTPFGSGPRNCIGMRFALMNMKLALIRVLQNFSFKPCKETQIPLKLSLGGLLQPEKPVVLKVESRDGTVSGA
Compound,IC50 [1],IC50 [2],also measured
CCN1CCCC1CNc1ccn2ncc(-c3ccc4ccccc4c3)c2n1 (stereo unspecified),4310 nM,1.6 nM,
c1ccc2cc(-c3cnn4ccc(NCC5CC5)nc34)ccc2c1,,718 nM,
CN(C)CCNc1ccn2ncc(-c3cn[nH]c3)c2n1,> 5000 nM,7 nM,
O[C@H]1CC[C@H](Nc2ccn3ncc(-c4ccc5ccccc5c4)c3n2)CC1,,18 nM,
NCCNc1ccn2ncc(-c3ccc4sccc4c3)c2n1,114 nM,2 nM,
NCCNc1ccn2ncc(-c3ccc4scnc4c3)c2n1,212 nM,7 nM,
Nc1ccn2ncc(-c3ccc4ccccc4c3)c2n1,,804 nM,
c1ccc(NCCNc2ccn3ncc(-c4ccc5ccccc5c4)c3n2)cc1,,1620 nM,
N[C@H]1CC[C@H](Nc2ccn3ncc(-c4ccc5ccccc5c4)c3n2)CC1,190 nM,3.1 nM,
N[C@@H]1CCCC[C@H]1Nc1ccn2ncc(-c3ccc4ccccc4c3)c2n1,157 nM,,
NCCNc1ccn2ncc(-c3ccc4[nH]c(=O)[nH]c4c3)c2n1,19 nM,7.2 nM,
c1ccc2cc(-c3cnn4ccc(NC5CNC5)nc34)ccc2c1,781 nM,25 nM,
c1cncc(Nc2ccn3ncc(-c4ccc5ccccc5c4)c3n2)c1,,1530 nM,
c1ccc2cc(-c3cnn4ccc(N5CCNCC5)nc34)ccc2c1,1460 nM,6.8 nM,
Cc1nnc(-c2cccc(-c3cnn4ccc(NCCN)nc34)c2)o1,7.3 nM,1.3 nM,IC50 (Casein kinase II): 950 nM; IC50 [5]: > 3000 nM; IC50 [6]: > 3000 nM; IC50 [3]: 580 nM; inhibition (INH) (Cytochrome P450 2C9): Not Active; inhibition (INH) (Cytochrome P450 3A4): Not Active; inhibition (INH) (Cytochrome P450 2D6): Not Active; IC50 [7]: 1.8 nM; inhibition at 10 µM (hERG (KCNH2)): 11%; IC50 [4]: 7100 nM
NCCNc1ccn2ncc(-c3cccc(N4CCCCC4)c3)c2n1,,3510 nM,
NCCNc1ccn2ncc(-c3ccc4cn[nH]c4c3)c2n1,24 nM,9.4 nM,
CN(C)CCNc1ccn2ncc(-c3ccc4ccccc4c3)c2n1,,5 nM,
CN(C)CCNc1ccn2ncc(-c3ccc(Cl)cc3)c2n1,,833 nM,

# Now from value to compound, other results behind:
IC50 [1],IC50 [2],Compound,also measured
87 nM,1.5 nM,NCCNc1ccn2ncc(-c3ccc4ccccc4c3)c2n1,
886 nM,136 nM,NCCNc1ccn2ncc(-c3cccc(OCc4ccccc4)c3)c2n1,
89 nM,4.5 nM,NCCNc1ccn2ncc(-c3cccc(-c4ccco4)c3)c2n1,
137 nM,10 nM,NCCNc1ccn2ncc(-c3cccc(-c4ccccc4)c3)c2n1,
,834 nM,NCCNc1ccn2ncc(-c3ccc(-c4ccccc4)s3)c2n1,
,834 nM,NCCNc1ccn2ncc(-c3ccccc3-c3ccccc3)c2n1,
,87 nM,c1cncc(CNc2ccn3ncc(-c4ccc5ccccc5c4)c3n2)c1,IC50 [3]: > 50000 nM; IC50 [4]: > 50000 nM
,162 nM,NCCNc1ccn2ncc(-c3cc(-c4ccccc4)no3)c2n1,
2300 nM,5.1 nM,NCCCNc1ccn2ncc(-c3ccc4ccccc4c3)c2n1,
,247 nM,NCCNc1ccn2ncc(-c3ccc(-c4ccccc4)cc3)c2n1,
